Assay results taken from patent US20110098554A1, “Monitoring of convection enhanced drug delivery” (priority 2004, published 2011).

Legend:
[1] = tested on: striatum of normal Sprague-Dawley (SD) rats; test: Cytotoxic tissue response to CED by T2-weighted and diffusion-weighted MRI and histology
Experimental: The resultant solution was infused into the striatum of normal Sprague-Dawley (SD) rats (males, 250-300 grams). T1-weighted MR images were acquired immediately post treatment to assess the extent of convection. Additionally, T2-weighted and diffusion-weighted MR images were acquired 24 hours post treatment to assess the response of the tissue and its correlation to the extent of convection.
Under full anesthesia, a midline scalp incision was made to identify the bregma. A 1 mm burr hole was made in the right region of the skull, 3 mm anterior and 2 mm lateral to the bregma. A 33-gauge needle attached to a 1000 μl syringe (Gastight; Hamilton) was placed stereotactically 5.5 mm deep into the striatum. The infusion was performed using a BASI syringe pump at a rate of 1 μl/min for a duration ranging from […].
In order to obtain a wide range in volumes of distribution, the infusion times were varied between 17 to 60 minutes. 13 rats were treated with Carboplatin (4 mg/ml, 17 minutes infusion). […]
The volume (in cm^3) of the composition distribution was calculated from the T1-weighted MR images acquired immediately post CED treatment. […] The number of pixels in the ROIs was counted and multiplying by the volume of a single pixel. […]

C26 colon cancer tumors = test: CED of high viscosity toxic infusates in C26 tumors in mice thigh, MRI; format: in vivo, balb-c mice
Experimental: Five balb-c mice, bearing large (over 2 cm in diameter) C26 colon cancer tumors in the thigh, were treated with CED of high viscosity toxic infusates. […] Two mice were treated with a high concentration combination of Ethanol and Cremaphore (150 μl Ethanol and 150 μl Cremaphore diluted with Saline to 1 ml) at infusion rate of 4 μl/min for 105 minutes.
Infusates were mixed with Gd (1:70) prior to treatment. MR images were acquired immediately post treatment to assess the distribution of the drug within the tumor.

malignant gliomas = details: first 24-48 hours post intratumoral CED, patients with recurrent malignant brain tumors; cited from earlier work

Compound: N.N.O=C([O-])C1(C(=O)[O-])CCC1.[Pt+2] [Carboplatin]
- enhancement in diffusion-weighted MR images ([1]; 24 hours post treatment, cases of efficient convection): significant enhancement

Compound: CC(=O)O[C@H]1C(=O)[C@@]2(C)[C@H]([C@H](OC(=O)c3ccccc3)[C@]3(O)C[C@H](OC(=O)[C@H](O)[C@@H](NC(=O)c4ccccc4)c4ccccc4)C(C)=C1C3(C)C)[C@]1(OC(C)=O)CO[C@@H]1C[C@@H]2O [Taxol®, Paclitaxel]
- histology of en block-resected lesion ([1]; rat, in vivo): Severe damage covering most of the striatum
- tumor tissue response (T2 MRI 24 hours post treatment) (C26 colon cancer tumors; mouse of FIGS. 16, efficient CED): complete necrosis
- tumor tissue response (T2 MRI 24 hours post treatment) (C26 colon cancer tumors; mouse of FIGS. 17, inefficient CED): no significant change in the tumor
- water diffusion changes on diffusion-weighted MRI (malignant gliomas): clear changes
